These results are taken from patent publication US10407425B2, “Indazole inhibitors of the Wnt signal pathway and therapeutic uses thereof” (Samumed, LLC, priority 2012, dated 2019).

This experiment concerns Wnt activity. Briefly: Wnt activity reporter assay (SP5 promoter firefly luciferase in SW480 cells). In kind it is cell-based. As to conditions: Homo sapiens; SW480 cells bearing SP5 promoter luciferase reporter; 24 h after compound addition; read-out: Wnt inhibition. The source says:
The above synthesized compounds were screened using the assay procedure for Wnt activity described below.
Reporter cell lines can be generated by stably transducing cells of cancer cell lines (e.g., colon cancer) with a lentiviral construct that include a wnt-responsive promoter driving expression of the firefly luciferase gene.
Lentiviral constructs can be made in which the SP5 promoter, a promoter having eight TCF/LEF binding sites derived from the SP5 promoter, is linked upstream of the firefly luciferase gene. The lentiviral constructs can also include a hygromycin resistance gene as a selectable marker. The SP5 promoter construct can be used to transduce SW480 cells, a colon cancer cell line having a mutated APC gene that generates a truncated APC protein, leading to de-regulated accumulation of β-catenin.
Cultured SW480 cells bearing a reporter construct can be distributed at approximately 10,000 cells per well into 384 well multiwell plates. Compounds from a small molecule compound library can then be added to the wells in half-log dilutions using a three micromolar top concentration. A series of control wells for each cell type receive only buffer and compound solvent. Twenty-four hours after the addition of compound, reporter activity for luciferases can be assayed, for example, by addition of the BrightGlo luminescence reagent (Promega) and the Victor3 plate reader (Perkin Elmer). Readings can be normalized to DMSO only treated cells, and normalized activities can then be used in the IC50 calculations.
Take `CN1CCN(c2cncc3[nH]c(-c4n[nH]c5ccc(-c6cncc(NC(=O)C7CC7)c6)cc45)nc23)CC1` [Compound 260, N-(5-(3-(7-(4-Methylpiperazin-1-yl)-3H-imidazo[4,5-c]pyridin-2-yl)-1H-indazol-5-yl)pyridin-3-yl)cyclopropanecarboxamide]: the IC50 worked out at 315 nM.

On to `Cc1ccncc1-c1ccc2[nH]nc(-c3nc4c(N5CCCCC5)cncc4[nH]3)c2c1` [Compound 202, 2-(5-(4-Methylpyridin-3-yl)-1H-indazol-3-yl)-7-(piperidin-1-yl)-3H-imidazo[4,5-c]pyridine], for which the IC50 was 535 nM.

Regarding `c1cc(-c2cncc3[nH]c(-c4n[nH]c5ccc(-c6cncc(CNCC7CCCC7)c6)cc45)nc23)cs1` [Compound 311, 1-Cyclopentyl-N-((5-(3-(7-(thiophen-3-yl)-3H-imidazo[4,5-c]pyridin-2-yl)-1H-indazol-5-yl)pyridin-3-yl)methyl)methanamine], the IC50 is 58 nM.

With `CN(C)c1cncc(-c2ccc3[nH]nc(-c4nc5c(-c6ccsc6)cncc5[nH]4)c3c2)c1` [Compound 295, N,N-Dimethyl-5-(3-(7-(thiophen-3-yl)-3H-imidazo[4,5-c]pyridin-2-yl)-1H-indazol-5-yl)pyridin-3-amine], the IC50 worked out at 3 nM.

Regarding `O=C(Nc1cncc(-c2ccc3[nH]nc(-c4nc5c(-c6ccc(F)cc6)cncc5[nH]4)c3c2)c1)C1CCC1` [Compound 111, N-(5-(3-(7-(4-Fluorophenyl)-3H-imidazo[4,5-c]pyridin-2-yl)-1H-indazol-5-yl)pyridin-3-yl)cyclobutanecarboxamide], the IC50 was 6 nM.

Turning to `O=C(Nc1cncc(-c2ccc3[nH]nc(-c4nc5c(-c6ccncc6)cncc5[nH]4)c3c2)c1)C1CCCC1` [Compound 170, N-(5-(3-(7-(Pyridin-4-yl)-3H-imidazo[4,5-c]pyridin-2-yl)-1H-indazol-5-yl)pyridin-3-yl)cyclopentanecarboxamide], the IC50 was found to be 7000 nM.

For `CCC(=O)Nc1cncc(-c2ccc3[nH]nc(-c4nc5c(-c6cccc(F)c6)cncc5[nH]4)c3c2)c1` [Compound 24, N-(5-(3-(7-(3-Fluorophenyl)-3H-imidazo[4,5-c]pyridin-2-yl)-1H-indazol-5-yl)pyridin-3-yl)propionamide], the IC50 was found to be 66 nM.

Turning to `CC(C)(C)C(=O)Nc1cncc(-c2ccc3[nH]nc(-c4nc5c(-c6ccoc6)cncc5[nH]4)c3c2)c1` [Compound 319, N-(5-(3-(7-(Furan-3-yl)-3H-imidazo[4,5-c]pyridin-2-yl)-1H-indazol-5-yl)pyridin-3-yl)pivalamide], the IC50 turned out to be 5 nM.

Turning to `CC(C)(C)CC(=O)Nc1cncc(-c2ccc3[nH]nc(-c4nc5c(-c6cccc(F)c6)cncc5[nH]4)c3c2)c1` [Compound 90, N-(5-(3-(7-(3-Fluorophenyl)-3H-imidazo[4,5-c]pyridin-2-yl)-1H-indazol-5-yl)pyridin-3-yl)-3,3-dimethylbutanamide], the IC50 was 12 nM.

`CN(C)Cc1cncc(-c2ccc3[nH]nc(-c4nc5c(-c6ccccn6)cncc5[nH]4)c3c2)c1` [Compound 186, N,N-Dimethyl-1-(5-(3-(7-(pyridin-2-yl)-3H-imidazo[4,5-c]pyridin-2-yl)-1H-indazol-5-yl)pyridin-3-yl)methanamine]: the IC50 was determined as 38 nM.

`FC1(F)CCN(Cc2cncc(-c3ccc4[nH]nc(-c5nc6c(-c7cccnc7)cncc6[nH]5)c4c3)c2)C1` [Compound 339, 2-(5-(5-((3,3-Difluoropyrrolidin-1-yl)methyl)pyridin-3-yl)-1H-indazol-3-yl)-7-(pyridin-3-yl)-3H-imidazo[4,5-c]pyridine]: the IC50 was found to be 39 nM.

For `O=C(Nc1cncc(-c2ccc3[nH]nc(-c4nc5ccncc5[nH]4)c3c2)c1)C1CC1` [Compound 283, N-(5-(3-(3H-Imidazo[4,5-c]pyridin-2-yl)-1H-indazol-5-yl)pyridin-3-yl)cyclopropanecarboxamide], the IC50 was determined as 8 nM.

As for `CC(C)(C)CC(=O)Nc1cncc(-c2ccc3[nH]nc(-c4nc5c(-c6ccsc6)cncc5[nH]4)c3c2)c1` [Compound 304, 3,3-Dimethyl-N-(5-(3-(7-(thiophen-3-yl)-3H-imidazo[4,5-c]pyridin-2-yl)-1H-indazol-5-yl)pyridin-3-yl)butanamide], the IC50 was determined as 3 nM.

On to `Cc1ccncc1-c1ccc2[nH]nc(-c3nc4c(-c5ccsc5)cncc4[nH]3)c2c1` [Compound 293, 2-(5-(4-Methylpyridin-3-yl)-1H-indazol-3-yl)-7-(thiophen-3-yl)-3H-imidazo[4,5-c]pyridine], for which the IC50 stood at 191 nM.

For `O=C(Nc1cncc(-c2ccc3[nH]nc(-c4nc5c(-c6ccoc6)cncc5[nH]4)c3c2)c1)C1CC1` [Compound 330, N-(5-(3-(7-(Furan-3-yl)-3H-imidazo[4,5-c]pyridin-2-yl)-1H-indazol-5-yl)pyridin-3-yl)cyclopropanecarboxamide], the IC50 is 739 nM.

In the case of `c1cc(-c2cncc3[nH]c(-c4n[nH]c5ccc(-c6cncc(CN7CCCC7)c6)cc45)nc23)ccn1` [Compound 163, 7-(Pyridin-4-yl)-2-(5-(5-(pyrrolidin-1-ylmethyl)pyridin-3-yl)-1H-indazol-3-yl)-3H-imidazo[4,5-c]pyridine], the IC50 stood at 296 nM.

Consider `Fc1ccccc1-c1cncc2[nH]c(-c3n[nH]c4ccc(-c5cncc(CN6CCCCC6)c5)cc34)nc12` [Compound 127, 7-(2-Fluorophenyl)-2-(5-(5-(piperidin-1-ylmethyl)pyridin-3-yl)-1H-indazol-3-yl)-3H-imidazo[4,5-c]pyridine], for which the IC50 came out at 14 nM.

In the case of `O=C(Cc1ccccc1)Nc1cncc(-c2ccc3[nH]nc(-c4nc5ccncc5[nH]4)c3c2)c1` [Compound 274, N-(5-(3-(3H-Imidazo[4,5-c]pyridin-2-yl)-1H-indazol-5-yl)pyridin-3-yl)-2-phenylacetamide], the IC50 is over 10000 nM.

For the molecule `O=C(Nc1cncc(-c2ccc3[nH]nc(-c4nc5ccncc5[nH]4)c3c2)c1)c1ccccc1` [Compound 275, N-(5-(3-(3H-Imidazo[4,5-c]pyridin-2-yl)-1H-indazol-5-yl)pyridin-3-yl)benzamide], the IC50 amounted to 141 nM.

For `CCCCC(=O)Nc1cncc(-c2ccc3[nH]nc(-c4nc5c(-c6ccoc6)cncc5[nH]4)c3c2)c1` [Compound 329, N-(5-(3-(7-(Furan-3-yl)-3H-imidazo[4,5-c]pyridin-2-yl)-1H-indazol-5-yl)pyridin-3-yl)pentanamide], the IC50 was 4 nM.

For `CC(C)C(=O)Nc1cncc(-c2ccc3[nH]nc(-c4nc5ccncc5[nH]4)c3c2)c1` [Compound 9, N-(5-(3-(3H-imidazo[4,5-c]pyridin-2-yl)-1H-indazol-5-yl)pyridin-3-yl)isobutyramide], the IC50 fell in the range of 400 to 630 nM.

Turning to `CC(C)Nc1cncc(-c2ccc3[nH]nc(-c4nc5c(-c6ccccc6F)cncc5[nH]4)c3c2)c1` [Compound 124, 5-(3-(7-(2-Fluorophenyl)-3H-imidazo[4,5-c]pyridin-2-yl)-1H-indazol-5-yl)-N-isopropylpyridin-3-amine], the IC50 was 1 nM.

Consider `CC(C)C(=O)Nc1cncc(-c2ccc3[nH]nc(-c4nc5c(N6CCN(C)CC6)cncc5[nH]4)c3c2)c1` [Compound 2, N-(5-(3-(7-(4-methylpiperazin-1-yl)-3H-imidazo[4,5-c]pyridin-2-yl)-1H-indazol-5-yl)pyridin-3-yl)isobutyramide], for which the IC50 was 125 to 146 nM.

In the case of `Fc1cccc(-c2cncc3[nH]c(-c4n[nH]c5ccc(-c6cncc(CN7CCC(F)(F)C7)c6)cc45)nc23)c1` [Compound 336, 2-(5-(5-((3,3-Difluoropyrrolidin-1-yl)methyl)pyridin-3-yl)-1H-indazol-3-yl)-7-(3-fluorophenyl)-3H-imidazo[4,5-c]pyridine], the IC50 was determined as 55 nM.

Turning to `CN1CCN(c2cncc3[nH]c(-c4n[nH]c5ccc(-c6cncc(NC(=O)Cc7ccccc7)c6)cc45)nc23)CC1` [Compound 252, N-(5-(3-(7-(4-Methylpiperazin-1-yl)-3H-imidazo[4,5-c]pyridin-2-yl)-1H-indazol-5-yl)pyridin-3-yl)-2-phenylacetamide], the IC50 came to 650 nM.

Take `CCC(=O)Nc1cncc(-c2ccc3[nH]nc(-c4nc5c(-c6ccsc6)cncc5[nH]4)c3c2)c1` [Compound 289, N-(5-(3-(7-(Thiophen-3-yl)-3H-imidazo[4,5-c]pyridin-2-yl)-1H-indazol-5-yl)pyridin-3-yl)propionamide]: the IC50 amounted to 2 nM.

With `CN(C)Cc1cncc(-c2ccc3[nH]nc(-c4nc5c(-c6ccsc6)cncc5[nH]4)c3c2)c1` [Compound 301, N,N-Dimethyl-1-(5-(3-(7-(thiophen-3-yl)-3H-imidazo[4,5-c]pyridin-2-yl)-1H-indazol-5-yl)pyridin-3-yl)methanamine], the IC50 came out at 69 nM.

`Nc1cncc(-c2ccc3[nH]nc(-c4nc5ccncc5[nH]4)c3c2)c1` [Compound 268, 5-(3-(3H-Imidazo[4,5-c]pyridin-2-yl)-1H-indazol-5-yl)pyridin-3-amine]: the IC50 is over 10000 nM.

With `c1ccc(-c2cncc3[nH]c(-c4n[nH]c5ccc(-c6cccnc6)cc45)nc23)nc1` [Compound 177, 7-(Pyridin-2-yl)-2-(5-(pyridin-3-yl)-1H-indazol-3-yl)-3H-imidazo[4,5-c]pyridine], the IC50 turned out to be 2 nM.

In the case of `O=C(Nc1cncc(-c2ccc3[nH]nc(-c4nc5c(-c6ccc(F)cc6)cncc5[nH]4)c3c2)c1)c1ccccc1` [Compound 104, N-(5-(3-(7-(4-Fluorophenyl)-3H-imidazo[4,5-c]pyridin-2-yl)-1H-indazol-5-yl)pyridin-3-yl)benzamide], the IC50 worked out at 7 nM.
